Experimental data reported in US10905123B2, “Herbicidal compounds” (Syngenta Participations AG, priority 2015, dated 2021).

Experiments:
Type in all cases: in vivo
Conditions in all cases: evaluated after 13 days
[1] = tested on: Echinochloa crus-galli (ECHCG); assay: B1 pre-emergence herbicidal activity
Procedure: (§1) Seeds of a variety of test species were sown in standard soil in pots: Triticum aestivium (TRZAW), Oryza sativa (ORYSA), Avena fatua (AVEFA), Alopecurus myosuroides (ALOMY), Echinochloa crus-galli (ECHCG), Lolium perenne (LOLPE). After cultivation for one day (pre-emergence) under controlled conditions in a glasshouse (at 24/16° C., day/night; 14 hours light; 65% humidity), the plants were sprayed with an aqueous spray solution derived from the formulation of the technical active ingredient in acetone/water (50:50) solution containing 0.5% Tween 20 (polyoxyethelyene sorbitan monolaurate, CAS RN 9005-64-5). The test plants were then grown in a glasshouse under controlled conditions (at 24/16° C., day/night; 14 hours light; 65% humidity) and watered twice daily. After 13 days, the test was evaluated (5=total damage to plant; 0=no damage to plant).

Oryza sativa (ORYSA) [2] = assay: B1 pre-emergence herbicidal activity
Procedure: as §1

Lolium perenne (LOLPE) [3] = assay: B1 pre-emergence herbicidal activity
Procedure: as §1

[4] = tested on: Triticum aestivium (TRZAW); assay: B1 pre-emergence herbicidal activity
Procedure: as §1

Avena fatua (AVEFA) [5] = assay: B1 pre-emergence herbicidal activity
Procedure: as §1

[6] = tested on: Alopecurus myosuroides (ALOMY); assay: B1 pre-emergence herbicidal activity
Procedure: as §1

[7] = tested on: Echinochloa crus-galli (ECHCG); assay: B2 post-emergence herbicidal activity
Procedure: (§2) Seeds of a variety of test species were sown in standard soil in pots: Triticum aestivium (TRZAW), Oryza sativa (ORYSA), Avena fatua (AVEFA), Alopecurus myosuroides (ALOMY), Echinochloa crus-galli (ECHCG), Lolium perenne (LOLPE). After 8 days cultivation (post-emergence) under controlled conditions in a glasshouse (at 24/16° C., day/night; 14 hours light; 65% humidity), the plants were sprayed with an aqueous spray solution derived from the formulation of the technical active ingredient in acetone/water (50:50) solution containing 0.5% Tween 20 (polyoxyethelyene sorbitan monolaurate, CAS RN 9005-64-5). The test plants were then grown in a glasshouse under controlled conditions (at 24/16° C., day/night; 14 hours light; 65% humidity) and watered twice daily. After 13 days, the test was evaluated (5=total damage to plant; 0=no damage to plant).

Oryza sativa (ORYSA) [8] = assay: B2 post-emergence herbicidal activity
Procedure: as §2

Lolium perenne (LOLPE) [9] = assay: B2 post-emergence herbicidal activity
Procedure: as §2

[10] = tested on: Triticum aestivium (TRZAW); assay: B2 post-emergence herbicidal activity
Procedure: as §2

Avena fatua (AVEFA) [11] = assay: B2 post-emergence herbicidal activity
Procedure: as §2

[12] = tested on: Alopecurus myosuroides (ALOMY); assay: B2 post-emergence herbicidal activity
Procedure: as §2

| Structure (SMILES) | Control of ECHCG after pre-emergence application (damage score 0-5) ([1]; Rate 1000 g/ha) | Control of ORYSA after pre-emergence application (damage score 0-5) (Oryza sativa (ORYSA) [2]; Rate 1000 g/ha) | Control of LOLPE after pre-emergence application (damage score 0-5) (Lolium perenne (LOLPE) [3]; Rate 1000 g/ha) | Control of TRZAW after pre-emergence application (damage score 0-5) ([4]; Rate 1000 g/ha) | Control of AVEFA after pre-emergence application (damage score 0-5) (Avena fatua (AVEFA) [5]; Rate 1000 g/ha) | Control of ALOMY after pre-emergence application (damage score 0-5) ([6]; Rate 1000 g/ha) | Control of ECHCG after post-emergence application (damage score 0-5) ([7]; Rate 1000 g/ha) | Control of ORYSA after post-emergence application (damage score 0-5) (Oryza sativa (ORYSA) [8]; Rate 1000 g/ha) | Control of LOLPE after post-emergence application (damage score 0-5) (Lolium perenne (LOLPE) [9]; Rate 1000 g/ha) | Control of TRZAW after post-emergence application (damage score 0-5) ([10]; Rate 1000 g/ha) | Control of AVEFA after post-emergence application (damage score 0-5) (Avena fatua (AVEFA) [11]; Rate 1000 g/ha) | Control of ALOMY after post-emergence application (damage score 0-5) ([12]; Rate 1000 g/ha) | also measured |
| --- | --- | --- | --- | --- | --- | --- | --- | --- | --- | --- | --- | --- | --- |
| CC(C)(C)OC(=O)Nc1cn(-c2cccnc2)nc1C(F)(F)F [Compound A7] | – | – | – | – | – | – | – | – | – | – | – | – | Control of ECHCG after pre-emergence application (damage score 0-5) ([1]; Rate 500 g/ha): 2; Control of ORYSA after pre-emergence application (damage score 0-5) (Oryza sativa (ORYSA) [2]; Rate 500 g/ha): 1; Control of LOLPE after pre-emergence application (damage score 0-5) (Lolium perenne (LOLPE) [3]; Rate 500 g/ha): 0; Control of TRZAW after pre-emergence application (damage score 0-5) ([4]; Rate 500 g/ha): 0; Control of AVEFA after pre-emergence application (damage score 0-5) (Avena fatua (AVEFA) [5]; Rate 500 g/ha): 0; Control of ALOMY after pre-emergence application (damage score 0-5) ([6]; Rate 500 g/ha): 0; Control of ECHCG after post-emergence application (damage score 0-5) ([7]; Rate 500 g/ha): 4; Control of ORYSA after post-emergence application (damage score 0-5) (Oryza sativa (ORYSA) [8]; Rate 500 g/ha): 1; Control of LOLPE after post-emergence application (damage score 0-5) (Lolium perenne (LOLPE) [9]; Rate 500 g/ha): 1; Control of TRZAW after post-emergence application (damage score 0-5) ([10]; Rate 500 g/ha): 0; Control of AVEFA after post-emergence application (damage score 0-5) (Avena fatua (AVEFA) [11]; Rate 500 g/ha): 2; Control of ALOMY after post-emergence application (damage score 0-5) ([12]; Rate 500 g/ha): 2 |
| Cc1nn(-c2cncc(F)c2)cc1N(C)C(=O)OC(C)(C)C [Compound A10] | 4 | 1 | 1 | 0 | 2 | 0 | 4 | 1 | 1 | 0 | 3 | 1 | – |
| CN(C(=O)OC(C)(C)C)c1cc(-c2cncnc2)nn1C [Compound A14] | 3 | 0 | 0 | 1 | 3 | 1 | 4 | 0 | 3 | 1 | 4 | 1 | – |
| Cc1nn(-c2cncnc2)cc1N(C)C(=O)NC(C)(C)C [Compound A16] | 2 | 1 | 1 | 1 | 1 | 1 | 4 | 0 | 2 | 1 | 3 | 1 | – |
| CN(C(=O)NC(C)(C)C)c1cn(-c2cncc(F)c2)nc1C(F)(F)F [Compound A19] | 2 | 0 | 1 | 0 | 0 | 0 | 4 | 0 | 1 | 0 | 1 | 1 | – |
| COC(=O)N(C)c1cn(-c2cncc(F)c2)nc1C(F)(F)F [Compound A27] | 2 | 0 | 0 | 0 | 0 | 0 | 4 | 1 | 2 | 1 | 3 | 0 | – |
